In article PMC10939060 (Bioorganic & medicinal chemistry letters, 2022):
Marks after values point to notes of the source that are not given here.

Key:
[1] = target: T1, hM5 (Homo sapiens, UniProt P08912); assay: Calcium mobilization assay with hM5-CHO cells, EC80 acetylcholine; format: cell-based; conditions: for hM5 IC50: antagonist
T1 sequence (P08912 1-532): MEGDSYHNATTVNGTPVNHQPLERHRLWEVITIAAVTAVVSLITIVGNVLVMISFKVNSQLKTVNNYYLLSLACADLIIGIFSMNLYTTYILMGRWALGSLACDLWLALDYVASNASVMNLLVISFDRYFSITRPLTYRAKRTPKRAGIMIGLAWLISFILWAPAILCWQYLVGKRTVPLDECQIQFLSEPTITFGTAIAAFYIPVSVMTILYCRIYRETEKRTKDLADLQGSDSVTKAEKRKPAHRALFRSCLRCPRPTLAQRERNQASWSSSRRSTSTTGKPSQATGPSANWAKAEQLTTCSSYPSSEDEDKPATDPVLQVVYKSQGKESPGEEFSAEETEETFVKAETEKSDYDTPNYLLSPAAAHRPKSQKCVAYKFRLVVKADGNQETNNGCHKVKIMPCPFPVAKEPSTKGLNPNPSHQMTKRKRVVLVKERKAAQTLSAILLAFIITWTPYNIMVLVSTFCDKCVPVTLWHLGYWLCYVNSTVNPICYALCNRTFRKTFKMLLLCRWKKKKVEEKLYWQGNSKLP

[2] = In vitro clearance; format: in vitro ADME, rat; conditions: for Predicted CLhep: rat (r)
[3] = In vitro clearance; format: in vitro ADME, human; conditions: for Predicted CLhep: human (h)
[4] = target: T2, hM4 (Homo sapiens, UniProt P08173); assay: Subtype selectivity, hM4; format: cell-based
T2 sequence (P08173 1-479): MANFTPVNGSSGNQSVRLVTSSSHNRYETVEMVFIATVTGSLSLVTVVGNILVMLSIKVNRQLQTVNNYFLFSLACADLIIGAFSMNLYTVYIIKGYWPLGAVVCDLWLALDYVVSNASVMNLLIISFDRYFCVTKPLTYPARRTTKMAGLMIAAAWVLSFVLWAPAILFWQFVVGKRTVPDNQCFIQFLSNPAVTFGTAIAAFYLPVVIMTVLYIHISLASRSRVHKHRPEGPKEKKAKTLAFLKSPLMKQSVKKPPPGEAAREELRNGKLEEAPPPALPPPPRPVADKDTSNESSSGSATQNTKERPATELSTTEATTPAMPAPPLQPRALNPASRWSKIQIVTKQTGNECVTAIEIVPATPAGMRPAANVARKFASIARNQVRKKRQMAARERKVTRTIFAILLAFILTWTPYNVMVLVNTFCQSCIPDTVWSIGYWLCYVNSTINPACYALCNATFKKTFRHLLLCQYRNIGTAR

[5] = target: hM3 (Homo sapiens, UniProt P20309); assay: Subtype selectivity, hM3; format: cell-based; conditions: printed as hM2-4
Sequence of hM3 (P20309 whole entry): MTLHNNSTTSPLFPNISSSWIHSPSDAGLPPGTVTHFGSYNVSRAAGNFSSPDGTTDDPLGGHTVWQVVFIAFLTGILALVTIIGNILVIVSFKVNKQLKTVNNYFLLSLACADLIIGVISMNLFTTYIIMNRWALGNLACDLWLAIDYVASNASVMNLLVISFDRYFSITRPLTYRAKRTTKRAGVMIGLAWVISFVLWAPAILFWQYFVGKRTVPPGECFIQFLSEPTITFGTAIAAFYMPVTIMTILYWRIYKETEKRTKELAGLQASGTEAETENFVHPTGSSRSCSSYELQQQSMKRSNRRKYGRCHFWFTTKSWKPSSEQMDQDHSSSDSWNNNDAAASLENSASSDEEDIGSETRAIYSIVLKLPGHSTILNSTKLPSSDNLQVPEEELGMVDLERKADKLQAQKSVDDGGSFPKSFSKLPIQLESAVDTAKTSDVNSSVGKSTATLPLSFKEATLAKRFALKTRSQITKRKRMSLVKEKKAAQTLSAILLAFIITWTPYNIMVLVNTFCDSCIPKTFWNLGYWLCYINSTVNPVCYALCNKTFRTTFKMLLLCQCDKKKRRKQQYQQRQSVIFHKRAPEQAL

[6] = target: T3, hM2 (Homo sapiens, UniProt P08172); assay: Subtype selectivity, hM2; format: cell-based; conditions: printed as hM2-4
T3 sequence (P08172 1-466): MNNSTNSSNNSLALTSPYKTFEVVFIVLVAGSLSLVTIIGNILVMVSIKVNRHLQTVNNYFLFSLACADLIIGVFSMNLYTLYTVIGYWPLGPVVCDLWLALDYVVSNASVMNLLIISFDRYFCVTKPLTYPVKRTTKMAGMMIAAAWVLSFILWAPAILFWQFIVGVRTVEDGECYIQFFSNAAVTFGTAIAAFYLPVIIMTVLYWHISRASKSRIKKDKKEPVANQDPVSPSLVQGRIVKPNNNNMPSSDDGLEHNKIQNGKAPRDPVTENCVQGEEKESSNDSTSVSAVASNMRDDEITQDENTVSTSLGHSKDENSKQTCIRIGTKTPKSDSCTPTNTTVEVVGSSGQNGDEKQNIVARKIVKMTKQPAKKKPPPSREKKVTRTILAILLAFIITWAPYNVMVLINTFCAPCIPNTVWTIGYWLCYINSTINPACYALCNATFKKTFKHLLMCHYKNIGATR

Structure (SMILES) | hM5 ACh Min [1] | Predicted CLhep [2] [mL/min/kg] | Predicted CLhep [3] [mL/min/kg] | further results
O=C(Nc1ccc2nncn2c1)C1CCN(S(=O)(=O)c2ccc3c(c2)CCO3)CC1 [28c] | inactive |  |  | hM5 IC50 [1]: inactive
O=C(Nc1ccc2ncnn2c1)C1CCN(S(=O)(=O)c2ccc3c(c2)CCO3)CC1 [28b] | inactive |  |  | hM5 IC50 [1]: inactive
Cc1nc2cc(NC(=O)C3CCN(S(=O)(=O)c4ccc5c(c4)CCO5)CC3)ccc2s1 [compound 20] | 19^c % | 60 | 16 | 
Cc1ccc(S(=O)(=O)N2CCC(C(=O)Nc3ccc4scnc4c3)CC2)cn1 [29d] |  | 27 | 4 | 
O=C(Nc1ccc2occc2c1)C1CCN(S(=O)(=O)c2ccc3c(c2)CCO3)CC1 [28a] | inactive |  |  | hM5 IC50 [1]: inactive
C[C@@H]1C[C@H](C(=O)Nc2ccc3scnc3c2)CCN1S(=O)(=O)c1ccc2c(c1)CCO2 (racemic) [(rac)-24] | 2^c % | 62 | 19 | 
O=C(Nc1ccc2nccnc2c1)C1CCN(S(=O)(=O)c2ccc3c(c2)CCO3)CC1 [28e] | inactive |  |  | hM5 IC50 [1]: inactive
Cc1nn(C)cc1S(=O)(=O)N1CC[C@H](C(=O)Nc2ccc3scnc3c2)[C@@H](F)C1 (racemic) [(rac)-30a] |  | 55 | 5 | 
O=C(Nc1ccc2snnc2c1)C1CCN(S(=O)(=O)c2ccc3c(c2)CCO3)CC1 [28g] |  | 64 | 18 | 
O=C(Nc1ccc2scnc2c1)C1CCN(S(=O)(=O)c2cccnc2)CC1 [29e] | 2^b % | 52 | 10 | 
O=C(Nc1ccc2scnc2c1)C1CCN(S(=O)(=O)c2ccc3ncsc3c2)CC1 [29a] |  | 38 | 13 | CLint scaled ([2]; rat): 38 mL/min/kg; CLint scaled ([3]; human): 13 mL/min/kg
O=C(Nc1cnc2sccc2c1)C1CCN(S(=O)(=O)c2ccc3c(c2)CCO3)CC1 [28d] | inactive |  |  | hM5 IC50 [1]: inactive
Cc1nn(C)cc1S(=O)(=O)N1CCC(C(=O)Nc2ccc3scnc3c2)CC1 [29f] |  | 28 |  | 
C[C@H]1CN(S(=O)(=O)c2ccc3c(c2)CCO3)CC[C@@H]1C(=O)Nc1ccc2scnc2c1 (racemic) [(rac)-23] | 3^c % | 61 | 17 | 
CC1COc2ccc(S(=O)(=O)N3CCC(C(=O)Nc4ccc5scnc5c4)CC3)cc21 (racemic) [(rac)-26] |  | 66 | 19 | 
Cc1ncc(S(=O)(=O)N2CC[C@H](C(=O)Nc3ccc4scnc4c3)[C@@H](F)C2)s1 (racemic) [(rac)-30c] |  | 37 | 5 | 
O=C(Nc1ccc2scnc2c1)C1CCN(S(=O)(=O)c2ccc3ncccc3c2)CC1 [29b] |  | 53 | 10 | 
C[C@@H]1C[C@@H](C(=O)Nc2ccc3scnc3c2)CCN1S(=O)(=O)c1ccc2c(c1)CCO2 (racemic) [(rac)-25] |  | 62 | 18 | 
O=C(Nc1ccc2cccnc2c1)C1CCN(S(=O)(=O)c2ccc3c(c2)CCO3)CC1 [28f] |  | 64 | 17 | 
C[C@@H]1CN(S(=O)(=O)c2ccc3c(c2)CCO3)CC[C@@H]1C(=O)Nc1ccc2scnc2c1 (racemic) [(rac)-22] | 3^c % | 62 | 19 | 
Cn1ncc(S(=O)(=O)N2CC[C@H](C(=O)Nc3ccc4scnc4c3)[C@@H](F)C2)c1Cl (racemic) [(rac)-30b] |  | 29 | 4 | 
O=C(Nc1ccc2scnc2c1)C1CCN(S(=O)(=O)c2ccc(Cl)nc2)CC1 [29c] | 3^b % | 33 | 11 | 
Cn1ccnc1NC(=O)C1CCN(S(=O)(=O)c2ccc3c(c2)CCO3)CC1 [compound 6] |  |  |  | hM5 IC50 [1]: inactive
O=C(Nc1ccc2scnc2c1)C1CCN(S(=O)(=O)c2ccc(Cl)s2)CC1 [compound 4] |  |  |  | hM4 IC50 [4]: inactive; hM3 IC50 [5]: inactive; hM2 IC50 [6]: inactive
